The subject of series [1] is glucose levels. The experiment in a line: Pilot study: glucose levels in rats after oral ion-pair formulations or subQ insulin. Format: in vivo. Conditions: subQ, 5 IU/kg. The text has this: (§1) The present Example describes a) selection of the dosage presentation for the lead ion-pair and the dose (see TABLE 8, FIGS. 4 and 14A-14D) and b) validation of the lead ion-pair formulation in their ability to lower glucose levels upon oral administration of the formulations (see FIGS. 15A-15D). In part a) of the present Example, we compared the capsule and FDT presentation formats for both ion-pair formulations. We also included β-CD-encapsulated ion-pair complex to see whether the encapsulation of ion-pair within β-CD offers further improvement in absorption of insulin. Liquid insulin given subcutaneously (subQ) was used a comparator in both studies.

Series [2] is described as follows: Static gastrointestinal use testing (GUT) model, gastric fluid. Conditions: 30 minutes at 37° C.
Description: The purpose of this evaluation was to test whether the bile-insulin ion-pair encapsulated within the resistant starch polymer is protected from pH and enzymatic degradation encountered in the gastrointestinal compartments. Since the in vivo feasibility of insulin FDTs is proposed in a diabetic rodent model, we scaled down the size of the FDTs based on limited size of the oral cavity in rats. We also included commercially available gelatin oral capsules fit for oral delivery to rats (FIGS. 12A and 12B). Biorelevant dissolution media simulating the pH and enzymatic conditions in the different sections of gastrointestinal tract, such as fasted state simulated gastric fluid (FASSFG), and intestinal fluid in the duodenum and jejunum (TABLE 7) were generated following the composition recipe reported by Jantratid et al. (2009).
Samples were incubated in the different fluid media maintained at 37° C. and at the 30-minute time point, removed and tested for insulin content. Unformulated insulin was used as a control for comparative evaluation (FIGS. 13A and 13B).
For series [3], the system named is glucose levels. The experiment in a line: Confirmation study: glucose levels in rats, additional doses. The series is classed as in vivo. Conditions: subQ, 5 IU/kg.
Description: as §1

Series [4] concerns blood glucose levels. As to the kind of experiment: Glucose lowering in STZ diabetic rodent model. Format: in vivo, Sprague Dawley rodents. Conditions: SC. How it is done:
Briefly, the male Sprague Dawley rodents (200-250 grams) are fasted 4 hours before given 65 mg/kg intraperitoneal (IP) streptozotocin (STZ) to induce diabetes and randomized into treatment groups based on the post-STZ (˜1 week) baseline glucose levels (see TABLE 10). Only rodents with hyperglycemia (glycose levels […]) are used in the study. Rodents are housed on a 12-hour light/dark cycle with no more than 2 rats per cage depending on size and acclimatized for not less than 5 days. Blood glucose levels are measured using calibrated Glucocard Vital glycometers (Arkray, Minneapolis, Minn.) and levels are reported as mg/dL. For each timepoint, blood (<5 uL) is acquired from a tail snip and directly applied to a glucose test strip. Data for each quantitative timepoint is presented as the average+/−SEM (standard error of the mean). Differences between vehicle control and each treatment groups are determined by Student's t-test using GraphPad Prism (current version) with an alpha threshold of 0.05.
Insulin and blood glucose levels were measured before administration, at 30 minutes, 60 minutes, 90 minutes, 2 hours, 4 hours, 8 hours, and 24 hours after dosing.

Take insulin: the glucose levels in series [1] (late time point (T=8 hours), similar to T=0) was found to be 600 mg/dL. Besides, the results for the glucose level in series [1] (within the first hour (from 600 mg/dL)) and in series [3] (T=1 hour (from 600 mg/dL)) were 100 mg/dL and about 100 mg/dL, respectively. In addition, the “lowering of glucose levels” value in series [1] (within the first hour of administration) is “about 80%”. Moreover, the “degradation in the presence of gastric fluid” value in series [2] is “degraded almost completely”. The “drop in glucose levels” value in series [3] (T=1 hour) is reported as about 80%. Besides, in series [4], the “time after administration within which glucose levels rise” value is at most 4 h. The substance also yielded a glucose lowering effect in series [4] (compared to diabetic rodent levels) of over 60%.

The record behind these values is patent publication US20230190660A1, “ENCAPSULATED PHARMACEUTICAL COMPOSITIONS, RELATED METHODS OF MAKING, AND RELATED METHODS OF TREATMENT” (PATH, priority 2021, published 2023).
